From ChEMBL document CHEMBL4177611, “Discovery of aminocyclohexene analogues as selective and orally bioavailable hNav1.7 inhibitors for analgesia” (Bioorg Med Chem Lett, 2017) come the findings set out here.

What is called pKa is the negative logarithm of the acid dissociation constant. Read a low pKa as a group that gives up its proton readily. A word on the IC50: it is the concentration that inhibits the measured activity by half. Broadly, the solubility (thermodynamic) is solubility found after equilibrating the solid with the medium. One may read the fraction unbound as free concentration divided by total concentration. The low end stands for extensive binding, the high end for weak binding. Broadly, the Cmax is the highest concentration seen after dosing. As a reminder, the bioavailability is dose-corrected exposure relative to a reference, in per cent. Higher therefore signals much systemic uptake.

A short description of series [1]: Volume of distribution at steady state in Sprague-Dawley rat administered as single iv bolus by LC-MS/MS analysis. It is filed as ADME, organism-based. Particulars: in vivo, read-out: Vdss.
Series [2] can be described thus: Dissociation constant, pKa of the compound. It is filed as physicochemical.
Series [3] is described as follows: Drug metabolism in human liver microsomes assessed as oxygenation by measuring M3 metabolite formation at 10 uM measured up to 60 mins in presence of NADPH by LC-MS analysis relative to total metabolite peak area. It is filed as ADME, microsome. To be noted: 1 h.
A short description of series [4]: Metabolic stability in human liver microsomes assessed as parent compound remaining at 10 uM measured up to 60 mins in presence of NADPH by LC-MS analysis. It is filed as ADME, microsome. Particulars: read-out: Stability. (Liver microsomes are a subcellular fraction often used to study metabolism.)
Series [5] in a line: Plasma concentration in Sprague-Dawley rat spinal nerve ligation model at 100 mg/kg administered as single dose via oral gavage measured after 4 hrs by LC-MS/MS analysis. In kind it is ADME, organism-based.
The target in another series is Cytochrome P450 2D6 (Homo sapiens, UniProt P10635).
Sequence of Cytochrome P450 2D6 (P10635 whole entry): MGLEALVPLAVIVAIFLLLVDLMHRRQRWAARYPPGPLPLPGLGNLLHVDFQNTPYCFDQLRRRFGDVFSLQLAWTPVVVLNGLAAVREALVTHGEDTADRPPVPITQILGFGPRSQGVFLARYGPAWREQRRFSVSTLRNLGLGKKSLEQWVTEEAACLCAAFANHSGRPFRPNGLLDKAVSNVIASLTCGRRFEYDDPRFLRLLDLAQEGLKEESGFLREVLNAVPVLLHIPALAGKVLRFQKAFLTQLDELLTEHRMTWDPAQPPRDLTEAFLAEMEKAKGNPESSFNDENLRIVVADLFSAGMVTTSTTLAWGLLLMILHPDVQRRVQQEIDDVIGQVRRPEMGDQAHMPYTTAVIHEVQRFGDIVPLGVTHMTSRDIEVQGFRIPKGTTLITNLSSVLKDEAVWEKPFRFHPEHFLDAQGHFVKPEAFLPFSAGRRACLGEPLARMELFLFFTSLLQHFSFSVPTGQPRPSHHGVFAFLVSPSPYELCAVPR
The nature of a further series: physchem. Particulars: buffer, pH 7.4.
The target of series [6] is Sodium channel protein type 4 subunit alpha (Homo sapiens, UniProt P35499). It is filed as ADME.
Sequence of Sodium channel protein type 4 subunit alpha (P35499 whole entry): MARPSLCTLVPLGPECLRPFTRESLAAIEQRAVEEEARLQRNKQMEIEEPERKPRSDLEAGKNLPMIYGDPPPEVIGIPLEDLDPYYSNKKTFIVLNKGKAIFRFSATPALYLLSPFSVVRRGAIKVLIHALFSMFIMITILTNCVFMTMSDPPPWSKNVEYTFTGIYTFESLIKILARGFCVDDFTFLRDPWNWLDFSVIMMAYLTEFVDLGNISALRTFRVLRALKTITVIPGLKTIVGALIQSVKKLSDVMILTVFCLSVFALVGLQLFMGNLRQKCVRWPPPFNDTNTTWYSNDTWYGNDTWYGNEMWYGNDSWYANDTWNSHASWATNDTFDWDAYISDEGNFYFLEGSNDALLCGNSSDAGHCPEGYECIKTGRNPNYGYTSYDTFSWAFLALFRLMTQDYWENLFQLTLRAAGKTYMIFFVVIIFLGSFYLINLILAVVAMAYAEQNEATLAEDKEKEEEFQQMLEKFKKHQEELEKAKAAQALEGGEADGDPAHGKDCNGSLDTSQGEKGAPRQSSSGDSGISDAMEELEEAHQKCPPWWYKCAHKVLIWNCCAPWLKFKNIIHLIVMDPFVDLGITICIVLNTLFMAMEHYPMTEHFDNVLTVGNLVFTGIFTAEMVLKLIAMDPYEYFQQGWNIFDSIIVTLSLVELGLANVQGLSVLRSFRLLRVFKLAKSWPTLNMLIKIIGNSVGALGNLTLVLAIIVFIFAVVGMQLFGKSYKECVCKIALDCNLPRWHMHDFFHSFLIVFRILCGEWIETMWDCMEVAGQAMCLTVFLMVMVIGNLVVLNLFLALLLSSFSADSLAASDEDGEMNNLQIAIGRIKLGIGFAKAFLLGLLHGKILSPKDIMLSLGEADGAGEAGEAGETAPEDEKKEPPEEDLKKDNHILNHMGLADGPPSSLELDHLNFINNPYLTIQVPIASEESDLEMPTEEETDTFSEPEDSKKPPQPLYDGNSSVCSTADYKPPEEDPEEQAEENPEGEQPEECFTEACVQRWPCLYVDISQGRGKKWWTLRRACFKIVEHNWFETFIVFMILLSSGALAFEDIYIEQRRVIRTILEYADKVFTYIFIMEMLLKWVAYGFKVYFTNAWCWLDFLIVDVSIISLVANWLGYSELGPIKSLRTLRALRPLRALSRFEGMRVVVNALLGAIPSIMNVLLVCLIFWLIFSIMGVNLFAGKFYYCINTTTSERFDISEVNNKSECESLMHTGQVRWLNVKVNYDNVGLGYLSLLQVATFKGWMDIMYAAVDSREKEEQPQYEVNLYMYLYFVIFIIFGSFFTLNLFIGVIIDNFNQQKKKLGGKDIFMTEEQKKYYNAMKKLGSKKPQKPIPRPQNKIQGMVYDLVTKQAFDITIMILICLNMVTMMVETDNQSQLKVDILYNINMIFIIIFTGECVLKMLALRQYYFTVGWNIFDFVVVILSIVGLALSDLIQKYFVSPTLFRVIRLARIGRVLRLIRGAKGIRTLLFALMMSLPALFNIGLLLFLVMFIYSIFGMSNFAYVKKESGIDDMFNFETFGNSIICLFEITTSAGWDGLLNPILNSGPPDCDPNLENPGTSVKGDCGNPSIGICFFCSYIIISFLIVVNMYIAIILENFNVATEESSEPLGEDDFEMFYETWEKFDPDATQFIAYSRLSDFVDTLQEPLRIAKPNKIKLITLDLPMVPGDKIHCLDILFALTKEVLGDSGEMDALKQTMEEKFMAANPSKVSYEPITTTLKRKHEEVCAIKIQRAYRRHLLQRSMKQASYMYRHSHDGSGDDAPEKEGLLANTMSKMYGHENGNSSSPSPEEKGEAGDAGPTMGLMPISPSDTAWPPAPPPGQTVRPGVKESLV
Series [7] can be described thus: Fraction unbound in rat plasma at 2 uM after 4 hrs by LC-MS/MS analysis. In kind it is ADME, cell-free.
The nature of series [8]: Plasma concentration in Sprague-Dawley rat spinal nerve ligation model at 100 mg/kg administered as single dose via oral gavage measured after 2 hrs by LC-MS/MS analysis. It is filed as ADME, organism-based.
A short description of series [9]: Drug uptake in Sprague-Dawley rat dorsal root ganglion at 100 mg/kg, ig measured after 1.5 hrs by LC-MS/MS analysis. In kind it is ADME, organism-based. Particulars: in vivo, po.
Series [10] can be described thus: Unbound plasma concentration in Sprague-Dawley rat spinal nerve ligation model at 30 mg/kg administered as single dose via oral gavage measured after 4 hrs by LC-MS/MS analysis. Particulars: in vivo. It is filed as ADME, organism-based.
A short description of series [11]: Volume of distribution at steady state in Sprague-Dawley rat at 3 mg/kg administered as single iv bolus by LC-MS/MS analysis. It is filed as ADME, organism-based. To be noted: in vivo, read-out: Vdss.
Series [12] in a line: Unbound plasma concentration in Sprague-Dawley rat spinal nerve ligation model at 30 mg/kg administered as single dose via oral gavage measured after 1 hr by LC-MS/MS analysis. Particulars: in vivo. It is filed as ADME, organism-based.
Series [13] can be described thus: Cmax in Sprague-Dawley rat at 10 mg/kg administered as single dose via oral gavage by LC-MS/MS analysis. It is filed as ADME, organism-based. Details: dose 10 mg/kg, route oral. Particulars: in vivo.
Series [14] is described as follows: Oral bioavailability in Sprague-Dawley rat at 10 mg/kg administered as single dose via gavage by LC-MS/MS analysis. It is filed as ADME, organism-based. To be noted: in vivo.

Consider `CCN[C@@H]1CCC=C(c2ccc(F)cc2)[C@H]1COc1cc(F)c(S(=O)(=O)Nc2cscn2)cc1Cl.Cl`, for which the Vd in series [1] came out at 4.65 L/kg; in [11], 4.63 L/kg. Also, the pKa in series [2] lay in the range of 6.34 to 9.35. In addition, the Drug metabolism entry in series [3] is recorded as “Metabolite_Detected”. In series [4], the remaining at 1 h, 10 µM came to 37.6%. In series [5], this compound gave a concentration at 4 h of 4640 nM. Also, the IC50 on Cytochrome P450 2D6 came to 22 µM; in series [6], 25.2 µM. In addition, the thermodynamic solubility in the series “physchem” stood at 26.5 µM. For the same compound, the fraction unbound at 4 h, 2 µM in [7] was determined as 0.035. Moreover, the concentration at 2 h in [8] was determined as 7500 nM. This compound returned a Drug uptake in series [9] of 2.6 µM/g. Moreover, the “Cp(f)” value is 54 nM in series [10] and 70 nM in [12]. In series [13], the concentration peaked (Cmax) at 620 nM. This compound had a bioavailability in series [14] of 37%.
